Target: Vascular endothelial growth factor receptor 2 (Homo sapiens, UniProt P35968)
Test: ADP-GloTM Assay
Protocol: The protein kinase assays used to determine IC50 value were performed using ADP-GloTM assay kit. The assay was started by incubating the reaction mixture in a 96-well plate at 30 °C for 30 min. After the 30 min incubation period, the assay was terminated by the addition of […] of ADPGloTM Reagent. The 96-well plate was shaken and then incubated for 40 min at ambient temperature, […] of kinase detection reagent was added, the 96-well reaction plate was then read using ADP-GloTM luminescences protocol on GloMaxTM plate reader. Blank control waqs set up that included all the assay components except the addition of appropriate substrate (replace with equal volume of kinase assay buffer).

Vascular endothelial growth factor receptor 2, sequence (P35968 whole entry): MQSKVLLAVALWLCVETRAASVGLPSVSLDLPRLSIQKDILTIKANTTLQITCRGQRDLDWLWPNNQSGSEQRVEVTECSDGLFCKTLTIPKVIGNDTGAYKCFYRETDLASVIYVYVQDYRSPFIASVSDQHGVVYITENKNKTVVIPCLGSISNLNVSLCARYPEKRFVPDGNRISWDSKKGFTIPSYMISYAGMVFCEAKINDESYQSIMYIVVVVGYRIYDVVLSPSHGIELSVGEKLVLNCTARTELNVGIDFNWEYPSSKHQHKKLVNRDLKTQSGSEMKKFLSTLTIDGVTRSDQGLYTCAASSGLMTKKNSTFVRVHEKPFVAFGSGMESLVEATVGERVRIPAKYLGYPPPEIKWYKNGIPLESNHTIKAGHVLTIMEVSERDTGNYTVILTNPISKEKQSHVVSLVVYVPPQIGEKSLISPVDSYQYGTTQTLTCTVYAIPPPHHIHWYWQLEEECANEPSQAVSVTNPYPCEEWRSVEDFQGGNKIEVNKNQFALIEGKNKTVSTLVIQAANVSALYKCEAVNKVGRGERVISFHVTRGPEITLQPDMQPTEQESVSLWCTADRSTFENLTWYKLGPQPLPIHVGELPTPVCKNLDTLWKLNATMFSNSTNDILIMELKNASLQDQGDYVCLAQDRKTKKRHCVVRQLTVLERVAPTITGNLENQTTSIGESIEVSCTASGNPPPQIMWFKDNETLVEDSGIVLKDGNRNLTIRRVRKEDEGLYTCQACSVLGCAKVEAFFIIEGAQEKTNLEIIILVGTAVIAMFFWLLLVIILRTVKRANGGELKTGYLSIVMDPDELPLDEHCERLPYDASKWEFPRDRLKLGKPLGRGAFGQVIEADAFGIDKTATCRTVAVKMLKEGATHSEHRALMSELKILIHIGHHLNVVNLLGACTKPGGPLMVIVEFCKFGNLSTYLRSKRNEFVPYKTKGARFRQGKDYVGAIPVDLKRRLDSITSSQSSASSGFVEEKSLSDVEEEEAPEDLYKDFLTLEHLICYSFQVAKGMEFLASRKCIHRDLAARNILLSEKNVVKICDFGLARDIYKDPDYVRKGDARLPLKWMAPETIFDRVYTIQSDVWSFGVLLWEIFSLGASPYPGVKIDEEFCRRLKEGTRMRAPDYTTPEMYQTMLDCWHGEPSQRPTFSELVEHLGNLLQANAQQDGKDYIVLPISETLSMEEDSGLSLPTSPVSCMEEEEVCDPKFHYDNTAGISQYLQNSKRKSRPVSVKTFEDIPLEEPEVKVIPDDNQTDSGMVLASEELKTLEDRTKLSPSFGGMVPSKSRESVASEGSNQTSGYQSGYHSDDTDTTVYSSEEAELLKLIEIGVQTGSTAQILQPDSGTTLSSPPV

With Cc1cc(C)c2c(Nc3ncnc4c3sc3nc(C)cc(C)c34)csc2n1 [N-(4,6-dimethylthieno[2,3-b]pyridine)-7,9-dimethylpyrido[30,20:4,5]thieno[3,2-d]pyrimidin-4-amine (9d)] the IC50 was 2600 nM.
